Values quoted from earlier work, collected in US12115137B2, “Synergistic combinations of atorvastatin and cannabidiol (CBD)” (Indication BioScience LLC, priority 2016, dated 2024).
Values belong to the compound of their own block, whether it stands above or below them.

Columns and labels:
[1] = oral, humans
CYP3A4 = CYP3A4 (Homo sapiens, UniProt P08684); conditions: Yamaori et al. 2011
CYP2C19 = CYP2C19 (Homo sapiens, UniProt P33261); conditions: Jiang et al. 2013
CYP2C9 = CYP2C9 (Homo sapiens, UniProt P11712); conditions: Jiang at 333 and references cited
[2] = not given; remark: listed apart in the source
[3] = with potent CYP3A4 inhibitors such as itraconazole

Sequence of CYP2C19 (P33261 whole entry): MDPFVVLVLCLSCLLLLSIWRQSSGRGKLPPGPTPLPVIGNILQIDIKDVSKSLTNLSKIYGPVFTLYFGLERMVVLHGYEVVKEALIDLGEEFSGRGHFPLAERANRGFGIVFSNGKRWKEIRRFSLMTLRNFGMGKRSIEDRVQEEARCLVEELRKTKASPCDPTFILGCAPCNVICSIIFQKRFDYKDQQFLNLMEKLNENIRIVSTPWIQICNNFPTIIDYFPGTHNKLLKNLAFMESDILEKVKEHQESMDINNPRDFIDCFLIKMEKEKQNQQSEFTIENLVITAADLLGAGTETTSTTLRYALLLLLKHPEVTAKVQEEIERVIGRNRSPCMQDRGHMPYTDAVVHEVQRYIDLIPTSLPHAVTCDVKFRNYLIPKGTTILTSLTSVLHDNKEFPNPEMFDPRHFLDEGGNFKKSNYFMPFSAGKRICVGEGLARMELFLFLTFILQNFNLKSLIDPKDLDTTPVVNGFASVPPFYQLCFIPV
Sequence of CYP3A4 (P08684 whole entry): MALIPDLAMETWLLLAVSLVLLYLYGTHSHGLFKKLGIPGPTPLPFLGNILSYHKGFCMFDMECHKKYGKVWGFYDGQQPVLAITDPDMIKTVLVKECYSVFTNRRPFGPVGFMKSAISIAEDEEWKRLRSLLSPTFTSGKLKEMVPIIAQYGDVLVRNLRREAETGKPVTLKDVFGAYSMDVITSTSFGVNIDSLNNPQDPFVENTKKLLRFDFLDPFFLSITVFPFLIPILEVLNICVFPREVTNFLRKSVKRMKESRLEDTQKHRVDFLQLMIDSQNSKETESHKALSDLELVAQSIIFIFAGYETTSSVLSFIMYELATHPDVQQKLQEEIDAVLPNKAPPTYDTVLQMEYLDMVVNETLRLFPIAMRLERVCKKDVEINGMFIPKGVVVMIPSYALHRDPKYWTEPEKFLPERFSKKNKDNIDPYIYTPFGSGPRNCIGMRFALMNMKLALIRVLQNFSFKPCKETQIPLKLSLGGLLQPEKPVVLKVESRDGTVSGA
Sequence of CYP2C9 (P11712 whole entry): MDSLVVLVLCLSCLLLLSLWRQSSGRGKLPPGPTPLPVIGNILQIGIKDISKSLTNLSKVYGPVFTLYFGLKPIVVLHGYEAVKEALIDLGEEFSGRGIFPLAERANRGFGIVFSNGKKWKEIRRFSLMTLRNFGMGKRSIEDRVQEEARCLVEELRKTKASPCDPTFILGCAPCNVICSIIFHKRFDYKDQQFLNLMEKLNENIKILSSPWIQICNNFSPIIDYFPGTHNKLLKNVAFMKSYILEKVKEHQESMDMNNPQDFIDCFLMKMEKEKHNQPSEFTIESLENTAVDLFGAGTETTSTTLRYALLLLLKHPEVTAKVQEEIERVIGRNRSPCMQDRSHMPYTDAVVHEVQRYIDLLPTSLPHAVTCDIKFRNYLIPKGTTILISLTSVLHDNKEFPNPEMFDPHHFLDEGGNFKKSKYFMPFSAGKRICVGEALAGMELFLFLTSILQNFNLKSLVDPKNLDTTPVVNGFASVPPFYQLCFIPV

Compound: C=C(C)[C@@H]1CCC(C)=C[C@H]1c1c(O)cc(CCCCC)cc1O [CBD, 2-[(1R,6R)-6-isopropenyl-3-methylcyclohex-2-en-1-yl]-5-pentylbenzene-1,3-diol]
bioavailability of CBD administered orally [1]: approximately 6%
increase in plasma concentration of CBD (with ketoconazole, a strong inhibitor of CYP3A4): about two-fold
reduction of CBD levels (with rifampin, a CYP3A4 inducer): 50-60%
inhibition of CYP3A4 (CYP3A4): potent inhibitor
inhibition of CYP2C19 (CYP2C19): potent inhibitor
inhibition of CYP2C9 (CYP2C9): potent inhibitor

Compound: COCc1c(C(C)C)nc(C(C)C)c(/C=C/[C@@H](O)C[C@@H](O)CC(=O)O)c1-c1ccc(F)cc1 [cerivastatin]
deaths attributed to kidney failure from drug-related rhabdomyolysis ([2]; before market withdrawal in 2001): 52 deaths
rate of fatal rhabdomyolysis relative to other approved statins ([2]; compared with other approved statins): ten times more common

increase in statin serum concentration [3]: two- to four-fold
Compound: CC(C)c1c(C(=O)Nc2ccccc2)c(-c2ccccc2)c(-c2ccc(F)cc2)n1CC[C@@H](O)C[C@@H](O)CC(=O)O [atorvastatin]
